In patent US7629354B2, “Use of phanquinone for the treatment of Alzheimer's disease” (Prana Biotechnology Limited, priority 1997, dated 2009):

Columns and labels:
[1] = in vivo; cited from earlier work
[2] = 1H NMR study of the interaction of vitamin B12 with clioquinol glucuronide; format: binding; conditions: 2.6 mM vitamin B12 and 10 mM clioquinol glucuronide, buffered water pH=6.5, 20° C.
Procedure: Three different solutions were prepared and their 1H NMR spectra were recorded in a DRX 400 MHz spectrophotometer at 20° C. Solution a) contained free vitamin B12 (hydroxycobalamin) in a concentration of 2.6 mM.
In FIG. 5 the spectra of the three solutions are presented for the aromatic region (5.5-9.8 ppm). The differences are quite small but obvious in the expansion shown of FIG. 6 and FIG. 7, respectively.

[3] = Solubility in water / aqueous solutions; format: physicochemical
[4] = biological target: T1, Aβ(1-40) (Homo sapiens, UniProt P05067); assay: Thioflavin T fluorometric assay of Zn2+-induced Aβ(1-40) aggregation; format: biochemical; conditions: test compound 10 μg/ml; Aβ(1-40) 100 μM; 24 hours, room temperature
T1 construct: A 5 mg/ml stock solution of Aβ(1-40) (delivered from Bachem (CH)) was freshly prepared; purchased Bachem (CH)
Procedure: (§1) A 5 mg/ml stock solution of Aβ(1-40) (delivered from Bachem (CH)) was freshly prepared before each experiment by dissolving the lyophilised peptide in 0.01 M HCl, followed by subsequent dilution 1:1 with 0.01 M NaOH to yield a neutral pH. Aliquot of Aβ(1-40) were diluted in PBS (pH 7.4) to 100 μM and incubated at a total volume of 30 μl for 24 hours at room temperature. For co-incubation experiments, the indicated concentrations of metal ions and/or aliquot of test compounds were added. The test compounds were added to a final […] concentration of 10 μg/ml.
(§2) The amyloid formation was quantified by a thioflavin T fluorometric assay. Thioflavin binds specifically to amyloid and this introduces a shift in its emission spectrum and a fluorescent signal proportional to the amount of amyloid is formed. After incubation, Aβ(1-40) peptides were added to PBS (pH 6.0) and 3 μM thioflavin T in a final volume of 1 ml. Fluorescence was monitored at excitation 454 nm and emission 482 nm using a Fluoroscan II fluorometer (Molecular devices, UK). A time scan of fluorescence was performed and three values after the decay reached a plateau (around 5 minutes) were averaged after subtracting the background fluorescence of 3 μM thioflavin T. For co-incubation experiments, fluorescence of test compound alone was determined. Samples were run in triplicate. […]

[5] = biological target: T1, Aβ(1-40); assay: Thioflavin T fluorometric assay of Cu2+-induced Aβ(1-40) aggregation; format: biochemical; conditions: test compound 10 μg/ml; Aβ(1-40) 100 μM; 24 hours, room temperature
Procedure: as §1, §2

[6] = tested on: PC12 cells; assay: MTT reduction (cell redox activity) in PC12 cells exposed to Aβ(25-35); format: cell-based, Rat
Procedure: Aβ(25-35) was delivered by Bachem (CH) or Sigma (USA) and dissolved in phosphate buffered saline (PBS) at pH 7.4, 2 hours prior to application.
Rat PC12 pheochromocytoma cells were grown in Dulbecco's modified Eagle's medium (DMEM) containing 1% penicillin-streptomycin, 5% fetal calf serum and 10% horse serum in humidified incubator with 5% CO2.
PC12 cells were plated on 96-wells microtiter plates in 100 μl of the appropriate medium. After 24 hours the indicated concentrations of Aβ(25-35) peptide was added alone or together with phanquinone in the designated concentrations. Incubation continued for 24 hours. Following incubation, MTT reduction was measured using a commercially available assay according to the manufacturer's (Boehringer Mannheim) instructions. Assay values obtained by vehicle alone were defined as 100%.
MTT is a substrate for intracellular and plasma membrane oxidoreductases and has been widely used to measure reductions of cell redox activity.
To test the effect of phanquinone on Aβ(25-35) induced toxicity in PC12 cells, PC12 cells were exposed to Aβ(25-35) peptide concentrations ranging from 0 to 10 μM. In the absence of phanquinone (i.e. only vehicle added) Aβ(25-35) produced a dose-dependent inhibition of MTT reduction (FIG. 1, filled-in circles).
In this study the same materials and methods as in example 1 were used, except that the PC12 cells were exposed to a fixed Aβ concentration of 1 μM, whereas the concentration of phanquinone was varied between 0 and 10 μg/ml. […] This inhibition was maintained in the presence of up to 0.1 μg phanquinone per ml.

T1 sequence (P05067 672-711): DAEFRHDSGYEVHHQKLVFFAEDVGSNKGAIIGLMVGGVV

Compound: CCN(CC)C(=S)SSC(=S)N(CC)CC [Disulfiram]
- adverse side effects [1]: severe adverse reactions

Compound: COC(=O)C1OC(Oc2c(I)cc(Cl)c3cccnc23)C(OC(C)=O)C(OC(C)=O)C1OC(C)=O (centres unmarked) [clioquinol glucuronide, methyl(5-chloro-7-iodo-quinolyl-2′,3′,4′-tri-O-acetyl-glucopyranosid)uronate]
- interaction with vitamin B12 (shift of 1H NMR resonances) [2]: interaction between clioquinol glucuronide and vitamin B12, possibly of a hydrophobic nature
- solubility in water [3]: soluble in water

Compound: Oc1c(I)cc(Cl)c2cccnc12 [clioquinol, 5-chloro-7-iodo-8-hydroxyquinoline]
- reduction of Zn2+-induced aggregation of Aβ(1-40) [4]: more than 60%
- reduction of Cu2+-induced aggregation of Aβ(1-40) [5]: approximately 30%
- solubility in water [3]: cannot be dissolved in aqueous solutions
- adverse side effects [1]: causes subacute myelo-optico-neuropathy (SMON)

Compound: O=C1C(=O)c2ncccc2-c2cccnc21 [phanquinone, 4,7-phenanthroline-5,6-dione]
- redox activity of Aβ(25-35)-treated cells ([6]; 1 μM Aβ(25-35), 1 μg/ml phanquinone or more): normal redox activity is restored
- toxic effect of Aβ ([6]; 10 μg phanquinone per ml, Aβ as high as 1 μM): completely counteracted
- toxic effect of Aβ(25-35) ([6]; 10 μg phanquinone per ml, Aβ(25-35) 0 to 10 μM): virtually abolished
- toxic effect of Aβ(25-35) ([6]; Aβ 1 μM, phanquinone 1 μg/ml and above): completely abolished
- toxic effect of Aβ(25-35) ([6]; Aβ 1 μM, phanquinone above 0.1 μg/ml): drastic reduced toxic effect
- inhibition of MTT reduction by Aβ(25-35) ([6]; Aβ 1 μM, up to 0.1 μg phanquinone per ml): maintained
- reduction of Cu2+-induced aggregation of Aβ(1-40) [5]: 50-60%
- adverse side effects [1]: no adverse side effects have been detected

Compound: Aβ(25-35): peptide sequence between amino acid residues 25 and 35 of Aβ, delivered by Bachem or Sigma (GSNKGAIIGLM; Amyloid-beta protein 42; UniProt P05067 696-706, looked up, fragment)
- redox activity of cells, of the normal level ([6]; 1 μM Aβ(25-35)): 60%
- inhibition of MTT reduction ([6]; Aβ(25-35) 1 μM, absence of phanquinone): approximately 40%
- inhibition of MTT reduction ([6]; Aβ(25-35) 10 μM, absence of phanquinone): approximately 50%
- inhibition of MTT reduction ([6]; Aβ(25-35) as low as 0.01 μM): significant reduction
- MTT reduction reduced to a maximum level ([6]; Aβ(25-35) on or above 0.1 μM, absence of phanquinone): about 50%
